# Key:
# Test in all cases: Post-emergence herbicidal action on harmful plants (greenhouse)
# Format in all cases: in vivo
# Conditions in all cases: 50 g a.i./ha, visual scoring after about 3 to 4 weeks
# Polygonum convolvulus = system: Polygonum convolvulus
# Procedure: (§1) 1. Post-emergence herbicidal action on harmful plants
# (§2) Seeds of monocotyledonous and dicotyledonous harmful plants are placed in sandy loam soil in cardboard pots, covered with soil and grown in a greenhouse under good growth conditions. Two to three weeks after sowing, the test plants are treated at the three-leaf stage. The compounds according to the invention which were formulated as wettable powders or emulsion concentrate are sprayed, at one of the dosages given in Tables 1 to 5, onto the surface of the green parts of the plants at an application rate of from 600 to 800 1 of water/ha (converted). After the test plants had remained in the greenhouse for about 3 to 4 weeks under optimum growth conditions, the effect of the preparations is scored visually by comparison with compounds disclosed in the prior art. As shown by the results of Comparative Tables 1 to 4, the selected compounds according to the invention have better herbicidal activity against a broad spectrum of economically important monocotyledonous and dicotyledonous harmful plants than the compounds disclosed in the prior art.
# Chenopodium album = system: Chenopodium album
# Procedure: as §1, §2
# Stellaria media = system: Stellaria media
# Procedure: as §1, §2
smiles,measurement,setting,value
Cc1nn(C)c(O)c1C(=O)c1ccc(S(C)(=O)=O)cc1 [Compound S2],Damage to the harmful plants in % POLCO,Polygonum convolvulus,10%
same,Damage to the harmful plants in % CHEAL,Chenopodium album,0%
same,Damage to the harmful plants in % STEME,Stellaria media,10%
